Data: patent publication US8974806B2, “Method for producing aqueous active substance compositions of active substances that are hardly soluble in water” (priority 2004, dated 2015)

Columns and labels:
[1] = tested on: Coniophora puteana BAM Ebw. 15; assay: Agar block method (Bravery test, similar to EN 113) on Southern Yellow Pine wood samples; assay type: cell-based; settings: C. puteana, 6 weeks, weight loss <3% = sufficient protection
Protocol: (§1) The activity threshold of the composition according to the invention from example 1 against wood-destroying Basidiomycetes was determined by the agar block method on wood samples from Pinus spp. (Southern Yellow Pine) of the dimensions 40×15×4 mm^3. The test method with wood samples reduced in size, known as bravery test, is very similar to EN 113 and serves to determine the prophylactic action of wood preservatives against wood-destroying fungi (see A. F. Bravery, Intern. Res. Group Wood Pres., Doc. No. IRG/WP/2113, 5S., Stockholm 1978). For comparison, a solution of epoxiconazole in acetone was tested under the same conditions.
(§2) The wood samples impregnated with the composition according to the invention were, with and without leaching stress, tested according to EN 84. The test was carried out using four different active compound concentrations and in each case 5 parallel samples per active compound concentration and test fungus. The test fungi used were Coniophora puteana BAM Ebw. 15, Poria placenta FPRL 280 and Coriolus versicolor CTB 863A. The destruction of the wood caused by the fungal attack was evaluated using the weight loss of the sample woods, which was determined after 6 weeks. If the weight loss is less than 3% by weight, based on the initial dry weight of the test sample, the protection of the wood achieved by the preservative at a certain active compound concentration is considered to be sufficient. The activity concentration threshold is stated in two concentrations.
(§3) The values determined for a solution of the active compound in acetone are shown for comparison.

Poria placenta FPRL 280 = assay: as above; assay type: cell-based; settings: P. placenta, 6 weeks, weight loss <3% = sufficient protection
Protocol: as §1, §2, §3

[2] = tested on: wood-destroying soil termites (Reticulitermes santonensis); assay: Forced termite test on treated Southern Yellow Pine wood samples (AWPA E1-97) after leaching stress (DIN EN 84); assay type: in vivo; settings: after leaching (DIN EN 84); 4-week test; lower value = wood no longer sufficiently protected, higher value = minimum concentration for complete protection (score 10)
Protocol: Using water, the aqueous active compound composition according to the invention from example 5 was diluted to three different active compound concentrations. For comparison, α-cypermethrin was dissolved in acetone, and the solution was diluted to the corresponding active compound concentrations using further acetone.
To determine the activity thresholds of the composition according to the invention against wood-destroying soil termites (Reticulitermes santonensis), wood samples from Pinus spp. of the dimensions 25×25×6 mm^3 (Southern Yellow Pine), which met the American test standard AWPA E1-97 (see “Standard method for laboratory evaluation to determine resistance to subterranean termites”, American Wood-Preservers' Association, 2001) were tested in a forced test after leaching stress according to DIN EN 84: 1997-01 (see “accelerated aging of treated wood prior to biological testings”, European Committee for Standardization).
The destruction of the wood caused by the termite attack was, after a 4-week test period, evaluated by visual scoring of the sample woods in accordance with AWPA E1-97. In addition, the mortality rate among the termites was estimated. […]
For the aqueous active compound composition according to the invention, the threshold for α-cypermethrin after leaching was determined to be 9-21 g/m^3. […]

Structure (SMILES) | Activity thresholds, with leaching ([1]; with leaching (EN 84)) | Activity thresholds, without leaching ([1]; without leaching) | Activity thresholds, with leaching (Poria placenta FPRL 280; with leaching (EN 84)) | Activity thresholds, without leaching (Poria placenta FPRL 280; without leaching) | threshold for α-cypermethrin after leaching [2]
Fc1ccc([C@]2(Cn3cncn3)O[C@H]2c2ccccc2Cl)cc1 (racemic) [Solution of epoxiconazole, epoxiconazole] | 110-160 g/m^3 | <190 g/m^3 | 110-180 g/m^3 | <190 g/m^3 | –
CC1(C)C(C=C(Cl)Cl)C1C(=O)OC(C#N)c1cccc(Oc2ccccc2)c1 (stereo not drawn) [α-cypermethrin] | – | – | – | – | above 21 g/m^3
